Patent US20060178387A1, “Combined treatment with capecitabine and an epidermal growth factor receptor kinase inhibitor” (priority 2005, published 2006)

What was measured:
[1] = tested on: HT-29 (human colon cancer) cells; assay: Tumor-growth inhibition in vivo, HT-29 xenograft in BALB/c nu/nu mice; details: erlotinib 100 mg/kg/day orally once daily for two weeks, day 15
From the text: (§1) Suspensions of LoVo (5×10^6 cells/mouse), HT-29 (5 x 10^6 cells/mouse) and A431 (8×10^6 cells/mouse) cells were inoculated s.c. into the right flank of the mice. A piece of MAXF401 was transplanted s.c. into the right flank of female mice. A suspension of KPL-4 cells (1×10^7 cells/mouse) was orthotopically transplanted into the second mammary fat pad of female mice. Several weeks after tumor inoculation, mice were selected and randomized into control and treatment groups. Experiments were started when tumor volumes reached approximately 0.1-0.3 cm^3. […] The tumor volumes were estimated using the equation V=ab^2/2, where a and b are tumor length and width, respectively. Gastrointestinal (GI) toxicity was estimated by observing the feces and by detecting fecal occult blood using a test kit (Shionogi Pharma Co., Osaka, Japan). Peripheral blood leukocyte counts were performed to evaluate bone marrow toxicity.

[2] = tested on: KPL-4 (human inflammatory breast cancer) cells; assay: Tumor-growth inhibition in vivo, KPL-4 orthotopic xenograft in BALB/c nu/nu mice
From the text: as §1

[3] = tested on: MAXF401 (human breast cancer) cells; assay: Tumor-growth inhibition in vivo, MAXF401 xenograft in BALB/c nu/nu mice; details: erlotinib 100 mg/kg/day orally once daily for two weeks, day 15
From the text: as §1

[4] = tested on: A-431 (human vulval epidermal cancer) cells; assay: Tumor-growth inhibition in vivo, A-431 xenograft in BALB/c nu/nu mice; details: erlotinib 100 mg/kg/day (80% of MTD) orally once daily for 14 days
From the text: as §1

[5] = Tolerability (body weight, deaths, MTD) in tumor-bearing mice; type: in vivo, BALB/c nu/nu mice; details: for lethality: erlotinib 250 mg/kg/day; for toxic deaths: erlotinib 50-125 mg/kg/day for 2 weeks
From the text: Male and female, 4-6-weeks old BALB/c nu/nu mice were obtained from Nippon Clea (Tokyo, Japan). All animals were allowed to acclimatize and recover from shipping-related stress for 1 week prior to the study. The health of the mice was monitored daily by observation.

[6] = tested on: LoVo (human colon cancer) cells; assay: Tumor-growth inhibition in vivo, LoVo xenograft in BALB/c nu/nu mice; details: for tumor inhibition rate: day 15, after 14 days' treatment; for tumor-growth inhibition: LoVo
From the text: as §1

[7] = erlotinib 100 mg/kg/day (80% of MTD) orally once daily for 14 days, day 15
[8] = erlotinib 100 mg/kg/day (80% of MTD) orally once daily for 14 days, day 15, listed as erlotinib

| Compound | tumor-growth inhibition [1] [%] | tumor-growth inhibition [2, 7] [%] | tumor-growth inhibition [2, 8] [%] | inhibition of tumor growth ([2]; single-agent erlotinib 75 mg/kg (data not shown)) [%] | tumor-growth inhibition [3] [%] | tumor-growth inhibition ([4]; day 15) [%] | tumor-growth inhibition ([4]; day 15, listed as erlotinib) [%] | MTD at 2 weeks ([5]; BALB/c nu/nu, mouse, in vivo, oral, read-out: maximum tolerated dose (MTD)) [mg/kg/day] | lethality ([5]; mice bearing A431 tumors (data not shown)) | lethality ([5]; mice bearing LoVo tumors (data not shown)) | toxic deaths ([5]; mice bearing LoVo tumors) | toxic deaths ([5]; mice bearing LoVo tumors, listed as erlotinib) | mean body weight maintained ([5]; mice bearing LoVo tumors, erlotinib 50-125 mg/kg/day, all groups) [%] | antitumor activity ([6]; LoVo dose-response study, erlotinib 50 mg/kg orally once daily for 2 weeks) | tumor inhibition rate ([6]; LoVo dose-response study, erlotinib 100 mg/kg orally once daily) [%] | tumor inhibition rate ([6]; LoVo dose-response study, erlotinib 125 mg/kg orally once daily) [%] | tumor-growth inhibition [6, 7] [%] | tumor-growth inhibition [6, 8] [%] | tumor-growth inhibition ([2]; capecitabine 90 mg/kg (67% of MTD for this model) orally once daily for 14 days, day 15) [%] | tumor-growth inhibition ([6]; capecitabine at the MTD, 539 mg/kg) [%] |
| --- | --- | --- | --- | --- | --- | --- | --- | --- | --- | --- | --- | --- | --- | --- | --- | --- | --- | --- | --- | --- |
| C#Cc1cccc(Nc2ncnc3cc(OCCOC)c(OCCOC)cc23)c1 [Erlotinib, [6,7-bis(2-methoxyethoxy)-4-quinazolin-4-yl]-(3-ethynylphenyl)amine] | 46 | 71 | 71 | 45 | 20 | 85 | 85 | 125 | lethal | lethal | no deaths recorded | No toxic deaths were observed | ≥ 80 | did not show significant antitumor activity | 62 | 85 | 74 | 74 | – | – |
| CCCCCOC(=O)Nc1nc(=O)n([C@@H]2O[C@H](C)[C@@H](O)[C@H]2O)cc1F [Capecitabine, capecitabine] | – | – | – | – | – | – | – | – | – | – | – | – | – | – | – | – | – | – | 36 | 56 |
